Columns and labels:
Type in all cases: cell-based
[1] = tested on: human lung organoid; test: Lung fibrosis model with human lung organoid
Description: Specifically, human lung organoids cultured in respective scaffolds were treated with TGF-β for 3 days and then analyzed.

[2] = tested on: mouse lung organoid; test: Lung fibrosis model with mouse lung organoid
Description: Specifically, lung organoids were treated for 3 days at respective concentrations on day 4 of culture and analyzed on day 7. A lung organoid that was not treated with TGF-β (NT, No treatment) was used as a control group.

[3] = tested on: human cholangiocyte-derived liver organoids (hCLOs); test: Liver fibrosis model with hCLO; conditions: hCLO in LEM, 3 days
Description: Meanwhile, for disease modeling using human cholangiocyte-derived liver organoids (hCLOs) cultured in the LEM, TGF-β was tested at each concentration and the organoids were treated with the most appropriate concentration of TGF-β (80 ng/ml). Then, the possibility of inducing liver fibrosis was checked.
To verify a liver fibrosis model, SMA (Smooth Muscle Actin) was used for staining to determine the accumulated extracellular matrix (ECM) around the organoids. Through this experiment, it was verified that a human liver fibrosis model can be constructed using a liver organoid cultured in the LEM scaffold (FIG. 79B).

[4] = tested on: mouse cholangiocyte-derived liver organoids (CLOs); test: Liver fibrosis model with mouse CLO
Description: For disease modeling using an LEM-based liver organoid, TGF-beta was screened at each concentration and the possibility of inducing liver fibrosis was checked. A model was induced using mouse cholangiocyte-derived liver organoids (CLOs) cultured for 7 days. To construct a liver fibrosis model, the organoids were treated with TGF-β at each concentration for 48 hours and observed.

TGF-β
SMA, COL1 and VIM expression (immunostaining) ([1]; 3 days after treatment): increased
ACTA2, COL1A2 and TNF-α expression ([1]; 3 days, quantitative PCR): significantly increased
SMA and Col1 expression (immunostaining) [2]: increase as the TGF-β treatment concentration increases
Col1a2 expression ([2]; 40 ng/ml): increased statistically significantly
lung organoid shape and growth ([2]; TGF-β each concentration, 3 days): changed in shape and did not grow well
liver organoid morphology and growth [3]: deformed in morphology and did not grow well
expression of liver fibrosis markers ([4]; 4 ng/ml TGF-β, qPCR): highest
liver organoid morphology and growth ([4]; TGF-β each concentration, 48 hours): changed in morphology and did not grow well
cholangiocyte marker expression ([4]; organoids cultured in LEM): significantly decreased
fibrosis marker expression ([4]; organoids cultured in LEM): greatly increased
